Laboratory results from patent US6214969A, “Luteinizing hormone releasing hormone analogs with cytotoxic moiety” (The Administrators of the Tulane Educational Fund, priority 1993, dated 2001).

Experiments:
[1] = system: dispersed rat pituitary cells (LH release); assay: LH-releasing activity in superfused rat pituitary cell system; format: cell-based; conditions: Table 1; compared to that produced by 3 nM LH-RH; peptide infused 3 min
Excerpt: B. Greenstein, Harwood Academic Publishers, London, (1990)].

[2] = system: MCF-7 human breast cancer cell line; assay: Inhibition of 3H-thymidine incorporation into DNA, MCF-7; format: cell-based
Experimental: Ability of peptides of Formula I to inhibit incorporation of [^3 H]thymidine into DNA of monolayer cultures the human mammary tumor cell line MCF-7 is assayed as described [V. K. Sondak et al., Cancer Research, 44, 1725-1728 (1984); F. Holzel et al., J. Cancer Res. Clin. Oncol. 109, 217-226 (1985); M. Albert et al., J. Cancer Res. Clin. Oncol. 109, 210-216 (1985)].
(§1) 200,000 cells in 200 μl of […]+2% CFBS were incubated with 1, 5 or 10 μg cytotoxic analogs for 3 hours or 23 hours then 1 μCi ^3 H-thymidine added and incubated an additional 60 min. DNA extracted with 1 N perchloric acid and the radioactivity measured.

[3] = target: T1, membrane receptors of human breast cancer cells (LHRH receptors) (Homo sapiens, UniProt P30968); assay: Receptor binding affinity for human breast cancer cell membranes, 125I-[D-Trp]6 LHRH as labelled ligand; conditions: 125I-[D-Trp]6 LHRH ligand, NB = no binding
T1 construct: from tissue
T1 sequence (P30968 1-328): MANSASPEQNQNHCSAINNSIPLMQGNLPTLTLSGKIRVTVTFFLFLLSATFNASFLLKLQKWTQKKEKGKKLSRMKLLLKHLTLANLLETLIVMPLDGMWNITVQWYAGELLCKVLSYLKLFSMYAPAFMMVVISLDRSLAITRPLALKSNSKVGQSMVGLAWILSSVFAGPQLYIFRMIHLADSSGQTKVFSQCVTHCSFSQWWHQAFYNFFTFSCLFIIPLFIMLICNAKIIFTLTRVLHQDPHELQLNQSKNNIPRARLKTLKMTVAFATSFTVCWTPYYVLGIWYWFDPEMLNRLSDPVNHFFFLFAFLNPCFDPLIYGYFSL
Experimental: Affinity for peptides to human breast cancer cell membranes is determined by using labelled LHRH and [D-Trp^6 ]LHRH. The assay is carried out similarly to that described by T. Kadar et al., Proc. Natl. Acad. Sci. USA, 85, 890-894 (1988) and M. Fekete et al., Endocrinology, 124, 946-955 (1989).
(§2) Table 2 presents the antiovulatory activity and human breast cancer cell membrane receptor binding affinity of the claimed compounds having LHRH-inhibiting properties. The inhibitory action was determined in vivo, in 4-day cycling rats as described [A. Corbin and C. W. Beattie, Endocr. Res. Commun., 2, 1-23 (1975)].

SkBr-3 Cell line = assay: Inhibition of 3H-thymidine incorporation into DNA, SkBr-3; format: cell-based, human
Experimental: as §1

T47D Cell line = assay: Inhibition of 3H-thymidine incorporation into DNA, T47D; format: cell-based, human
Experimental: as §1

MDA-MB-231 Cell Line = assay: Inhibition of 3H-thymidine incorporation into DNA, MDA-MB-231; format: cell-based, human
Experimental: as §1

[4] = system: ovulation in 4-day cycling rats; assay: In vivo antiovulatory activity in 4-day-cycling rats; conditions: 10 μg per rat
Experimental: This activity of the peptides is determined in 4-day-cycling rats as described [A. Corbin and C. W. Beattie, Endocr. Res. Commun., 2, 1-23 (1975)].
as §2

[5] = system: human mammary cell line MDA-MB-231; conditions: 10 μg dose; cited from earlier work

pGlu-His-Trp-Ser-Tyr-D-Lys[Ahx(MTX)]-Leu-Arg-Pro-Gly-NH2 [compound 34]
Relative Activity (LH-releasing activity) [1]: 6.7
% Inhibition at 24 hrs ([2]; dose 1 μg/ml): 16%
% Inhibition at 24 hrs ([2]; dose 10 μg/ml): 21%
Affinity Constant Ka1 ([3]; Table 1 (agonists)): 4.42 nM⁻¹

pGlu-His-Trp-Ser-Tyr-D-Lys(MTX)-Leu-Arg-Pro-Gly-NH2 [compound 4]
% Inhibition at 4 hrs (SkBr-3 Cell line; dose 1 μg/ml): 21%
% Inhibition at 24 hrs (SkBr-3 Cell line; dose 1 μg/ml): 16%
% Inhibition at 4 hrs (SkBr-3 Cell line; dose 10 μg/ml): 36%
% Inhibition at 24 hrs (SkBr-3 Cell line; dose 10 μg/ml): 10%
% Inhibition at 4 hrs (T47D Cell line; dose 1 μg/ml): 38%
% Inhibition at 24 hrs (T47D Cell line; dose 1 μg/ml): 26%
% Inhibition at 4 hrs (T47D Cell line; dose 10 μg/ml): 54%
% Inhibition at 24 hrs (T47D Cell line; dose 10 μg/ml): 41%
% Inhibition at 4 hrs (MDA-MB-231 Cell Line; dose 1 μg/ml): 23%
% Inhibition at 24 hrs (MDA-MB-231 Cell Line; dose 1 μg/ml): 0%
% Inhibition at 4 hrs (MDA-MB-231 Cell Line; dose 10 μg/ml): 31%
% Inhibition at 24 hrs (MDA-MB-231 Cell Line; dose 10 μg/ml): 8%

Ac-D-Nal(2)-D-Phe(4Cl)-D-Trp-Ser-Arg-D-Lys(D-Mel)-Leu-Arg-Pro-D-Ala-NH. sub.2 [compound 19]
% Inhibition at 24 hrs ([2]; dose 1 μg/ml): 34%
% Inhibition at 24 hrs ([2]; dose 10 μg/ml): 49%
% Ovulation Blocked [4]: 40%
Affinity Constant Ka2 ([3]; Table 2 (antagonists)): 32.54 µM⁻¹

pGlu-His-Trp-Ser-Tyr-D-Lys(MTX)-Leu-Arg-Pro-Gly-NH2 [4A]
Affinity Constant Ka1 ([3]; Table 1 (agonists)): 5.42 nM⁻¹
Affinity Constant Ka2 ([3]; Table 1 (agonists)): 1.59 µM⁻¹

Ac-D-Nal(2)-D-Phe(4Cl)-D-Trp-Ser-Tyr-D-Lys(MTX)-Leu-Arg-Pro-D-Ala-NH2 [compound 18]
Affinity Constant Ka1 ([3]; Table 2 (antagonists)): 3.58 nM⁻¹
Affinity Constant Ka2 ([3]; Table 2 (antagonists)): 1.07 µM⁻¹

Ac-D-Nal(2)-D-Phe(4Cl)-D-Trp-Ser-Tyr-D-Lys(D-Mel)-Leu-Arg-Pro-D-Ala-NH. sub.2 [compound 15]
% Ovulation Blocked [4]: 100%
Affinity Constant Ka1 ([3]; Table 2 (antagonists)): 3.58 nM⁻¹

pGlu-His-Trp-Ser-Tyr-D-Lys[Ahx-A2 bu(SAL)2 (Cu)]-Leu-Arg-Pro-Gly-NH2
inhibition of [3H]thymidine incorporation into DNA [5]: 87%

pGlu-His-Trp-Ser-Tyr-D-Lys(Glt-DOX)-Leu-Arg-Pro-Gly-NH2 [compound 33]
% Inhibition at 4 hrs (SkBr-3 Cell line; dose 1 μg/ml): 27%
% Inhibition at 24 hrs (SkBr-3 Cell line; dose 1 μg/ml): 0%
% Inhibition at 4 hrs (SkBr-3 Cell line; dose 10 μg/ml): 24%
% Inhibition at 24 hrs (SkBr-3 Cell line; dose 10 μg/ml): 14%
% Inhibition at 4 hrs (T47D Cell line; dose 1 μg/ml): 32%
% Inhibition at 24 hrs (T47D Cell line; dose 1 μg/ml): 11%
% Inhibition at 4 hrs (T47D Cell line; dose 10 μg/ml): 44%
% Inhibition at 24 hrs (T47D Cell line; dose 10 μg/ml): 10%
Relative Activity (LH-releasing activity) [1]: 12
% Inhibition at 4 hrs ([2]; dose 1 μg/ml): 19%
% Inhibition at 24 hrs ([2]; dose 1 μg/ml): 0%
% Inhibition at 4 hrs ([2]; dose 5 μg/ml): 34%
% Inhibition at 24 hrs ([2]; dose 5 μg/ml): 61%
% Inhibition at 4 hrs (MDA-MB-231 Cell Line; dose 1 μg/ml): 20%
% Inhibition at 24 hrs (MDA-MB-231 Cell Line; dose 1 μg/ml): 0%
% Inhibition at 4 hrs (MDA-MB-231 Cell Line; dose 10 μg/ml): 9%
% Inhibition at 24 hrs (MDA-MB-231 Cell Line; dose 10 μg/ml): 0%
Affinity Constant Ka2 ([3]; Table 1 (agonists)): 14.4 µM⁻¹

Ac-D-Nal(2)-D-Phe(4Cl)-D-Pal(3)-Ser-Arg-D-Lys(MTX)-Leu-Arg-Pro-D-Ala-NH. sub.2 [compound 29]
% Inhibition at 24 hrs ([2]; dose 1 μg/ml): 10%
% Inhibition at 24 hrs ([2]; dose 10 μg/ml): 16%
% Ovulation Blocked [4]: 100%
Affinity Constant Ka1 ([3]; Table 2 (antagonists)): 0.44 nM⁻¹
Affinity Constant Ka2 ([3]; Table 2 (antagonists)): 1.04 µM⁻¹

pGlu-His-Trp-Ser-Tyr-D-Lys(MTX)-Leu-Arg-Pro-Gly-NH2 [4B]
Affinity Constant Ka1 ([3]; Table 1 (agonists)): 0.63 nM⁻¹

pGlu-His-Trp-Ser-Tyr-D-Orn(MTX)-Leu-Arg-Pro-Gly-NH2 [compound 11]
% Inhibition at 4 hrs ([2]; dose 1 μg/ml): 34%
% Inhibition at 24 hrs ([2]; dose 1 μg/ml): 7%
% Inhibition at 4 hrs ([2]; dose 10 μg/ml): 29%
% Inhibition at 24 hrs ([2]; dose 10 μg/ml): 3%
